From patent EP0066456B1, “N-substituted azaheterocyclic carboxylic acids and their esters” (SMITHKLINE BECKMAN CORPORATION, priority 1981, dated 1982)

Tested on: contralateral rotation in rats induced by unilateral injection of GABA into the pars reticulata of the substantia nigra
Experiment: potentiation of GABA-induced contralateral rotation in rats (unilateral GABA injection into pars reticulata of substantia nigra)
Assay type: in vivo
Settings: systemic administration, doses from 2.5 to 40.0 mg/kg, I.P.
Procedure: Compounds active in the in vitro test described above are tested by systemic administration for their ability to penetrate the central nervous system and potentiate the rotation induced by GABA.

Cl.O=C(O)C1CCCN(CCC=C(c2ccccc2)c2ccccc2)C1 (stereo not shown) [1 - (4,4 - diphenyl - 3 - butenyl) - 3 - piperidinecarboxylic acid hydrochloride]
potentiation of contralateral rotation induced by GABA: significantly active
